Data published in ChEMBL document CHEMBL1123110, “Bicyclic and tricyclic analogues of anthramycin” (1985).

Experiments:
Assay type in all cases: functional
Mus musculus [1] = assay: In vivo activity against P388 lymphocytic leukemia, and the maximum T/C values were reported. T/C >=125 is considered active
Mus musculus [2] = species on record: Mus musculus; assay: Optimal dose required for activity against P388 lymphocytic leukemia.
Mus musculus [3] = species on record: Mus musculus; assay: Optimal dose required for activity against P388 lymphocytic leukemia

| Compound | Max T/C (Mus musculus [1]) | OD (Mus musculus [2]) [mg/kg] | OD (Mus musculus [3]) [mg/kg] |
| --- | --- | --- | --- |
| C/C=C1\C[C@H]2[C@@H](OC)Nc3cc(O)c(OC)cc3C(=O)N2C1 | 188 | 0.2 |  |
| C/C=C/CN1CC=Nc2c(O)cccc2C1=O | 138 | 20 |  |
| O=C1c2ccccc2N=CC2CCCN12 (stereo unspecified) | 133 | 8 |  |
| COc1cc2c(cc1O)N[C@H](OC)[C@@H]1CC(O)CN1C2=O (stereo partly specified) | 144 | 6.4 |  |
| O=C1c2cccc(O)c2N=CCN1Cc1ccccc1 | 100 | 16 |  |
| COC(=O)/C=C1/C[C@H]2[C@@H](S(=O)(=O)[O-])Nc3cc(O)c(OC)cc3C(=O)N2C1.[Na+] | 131 | 6 |  |
| CCOC(=O)CN1CC=Nc2c(O)cccc2C1=O | 106 | 40 |  |
| CN1CC=Nc2c(O)cccc2C1=O | 122 | 16 |  |
| O=C1NCC=Nc2c(O)cccc21 | 125 | 16 |  |
| COc1cc2c(cc1O)N[C@@H](OC)[C@@H]1CC(O)CN1C2=O (stereo partly specified) | 100 | 16 |  |
| C=CCN1CC=Nc2c(O)cccc2C1=O | 117 | 80 |  |
| C#CCN1CC=Nc2c(O)cccc2C1=O | 162 | 16 |  |
| COc1cc2c(cc1OC(C)=O)N[C@H](OC)[C@@H]1CC(OC(C)=O)CN1C2=O (stereo partly specified) | 100 |  | 16 |
